Measurements reported in US20070010669A1, “Novel class of cytodifferentiating agents and histone deacetylase inhibitors, and methods of use thereof” (priority 1999, published 2007).
Where two headings read alike, the source gives them in different places.

Key:
[1] = tested on: Murine erythroleukemia (MEL) cells; test: MEL cell differentiation assay (benzidine assay; cell growth by Coulter Counter); assay type: cell-based; details: for MEL Differentiation % B+ / MEL Differentiation Opt.: Table 1; for MEL Differentiation % B+: benzidine-positive cells at Opt. concentration; for MEL Differentiation Opt.: optimal concentration; for MEL Diff Cells/ml × 10^−5: cell growth
Experimental: (§1) The MEL cell differentiation assay was used to assess the ability of Compound 1 to induce terminal differentiation. MEL cells (logarithmically dividing) were cultured with the indicated concentrations of Compound 1. Following a 5-day culture period, cell growth was determined using a Coulter Counter and differentiation was determined microscopically using the benzidine assay to determine hemoglobin protein accumulation on a per cell basis.
as §1, with “2” for “1”, “2.” for “1.”, “period” for “period, cell growth was determined using a Coulter Counter and”
as §1, with “3” for “1”, “3.” for “1.”, “period” for “period, cell growth was determined using a Coulter Counter and”, “microsdopically” for “microscopically”
as §1, with “4” for “1”, “4.” for “1.”, “period” for “period, cell growth was determined using a Coulter Counter and”
All the compounds which were prepared were tested. […] Table 2 is compiled from experiments similar to the experiments described in Examples 7-10 above.

[2] = target: T1, affinity purified human epitope-tagged (Flag) HDAC1 (Homo sapiens, UniProt Q13547); test: Histone Deacetylase (HDAC) enzymatic activity, [3H]acetyl-labeled histone substrate; assay type: biochemical; set-up: Flag
Experimental: (§2) Substrate ([^3H]acetyl-labeled murine erythroleukemia cell-derived histone) was added and the samples were incubated for 20 min at 37° C. in a total volume of 30 μl. The reaction were then stopped and released acetate was extracted and the amount of radioactivity released determined by scintillation counting.
as §2, with “Substrate ([^3H]acetyl-labelled” for “Substrate ([^3H]acetyl-labeled”, “The reactions” for “The reaction”, “and relaesed” for “and released”
as §2, with “([^3H]acetyl-labelled” for “([^3H]acetyl-labeled”, “reactions” for “reaction”
The effect was assayed by incubating the enzyme preparation in the absence of substrate on ice for 20 minutes with the indicated amounts of compound. Substrate([^3H]acetyl-labeled murine erythroleukemia cell-derived histones) was added and the samples were incubated for 20 minutes at 37° C. in a total volume of 30 μl. The reactions were then stopped and released acetate was extracted and the amount of radioactivity released determined by scintillation counting.

HDAC = HDAC (Homo sapiens, UniProt Q13547); test: Inhibition of the enzyme HDAC (Examples 12 and 13); assay type: biochemical; details: read-out: ID50 as inhibitor of HDAC
[3] = tested on: CWR22 human prostate xenograft; details: 50 mg/kg/day
Description: SAHA is currently in Phase I Clinical Trials in patients with solid tumors.

[4] = tested on: acetylated histones H3 and H4 in peripheral blood mononuclear cells; test: Acetylated histones in peripheral blood mononuclear cells of patients under treatment; assay type: in vivo; details: IV infusion daily ×3, FIG. 10
Experimental: FIG. 10. SAHA causes accumulation of acetylation histones H3 and H4 in peripheral blood […] cells in patients. SAHA was administered by IV infusion daily ×3. Samples were isolated before (Pre), following infusion (Post) and 2 hours after infusion.
The in vivo effect of SAHA has been studied using the CWR22 human prostate xenograft in mice (68).

HDAC3 = HDAC3 (Homo sapiens, UniProt O15379); details: cited from earlier work
[5] = target: T1, affinity purified human epitope-tagged (Flag) HDAC1; details: cited from earlier work
[6] = Table 2, unit nM, read-out: HDAC inh ID50

Sequence of HDAC (Q13547 whole entry): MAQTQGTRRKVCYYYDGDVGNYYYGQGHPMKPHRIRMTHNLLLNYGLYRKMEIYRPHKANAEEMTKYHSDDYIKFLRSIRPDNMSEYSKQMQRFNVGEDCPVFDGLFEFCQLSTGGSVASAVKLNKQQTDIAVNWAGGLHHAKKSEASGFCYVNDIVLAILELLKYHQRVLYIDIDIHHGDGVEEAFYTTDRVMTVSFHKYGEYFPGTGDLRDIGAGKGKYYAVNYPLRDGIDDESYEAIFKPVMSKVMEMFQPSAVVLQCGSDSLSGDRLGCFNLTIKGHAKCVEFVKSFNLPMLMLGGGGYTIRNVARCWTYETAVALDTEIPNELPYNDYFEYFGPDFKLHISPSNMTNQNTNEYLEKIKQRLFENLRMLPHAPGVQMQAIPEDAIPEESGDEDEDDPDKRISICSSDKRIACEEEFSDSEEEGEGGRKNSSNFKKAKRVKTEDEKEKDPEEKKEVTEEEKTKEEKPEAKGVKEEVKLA
T1 sequence (Q13547 whole entry): as above
Sequence of HDAC3 (O15379 whole entry): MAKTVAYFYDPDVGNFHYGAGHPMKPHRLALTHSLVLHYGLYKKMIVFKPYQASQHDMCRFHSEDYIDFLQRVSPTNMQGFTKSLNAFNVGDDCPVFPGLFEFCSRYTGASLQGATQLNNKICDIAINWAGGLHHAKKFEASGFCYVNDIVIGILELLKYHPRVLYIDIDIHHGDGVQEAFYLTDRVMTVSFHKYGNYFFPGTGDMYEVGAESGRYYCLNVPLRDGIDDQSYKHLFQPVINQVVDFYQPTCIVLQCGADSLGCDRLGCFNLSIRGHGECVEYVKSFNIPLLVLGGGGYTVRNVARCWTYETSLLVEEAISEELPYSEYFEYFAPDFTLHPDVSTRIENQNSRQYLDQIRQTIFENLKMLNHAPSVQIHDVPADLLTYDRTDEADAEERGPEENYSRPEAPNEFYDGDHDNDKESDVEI
Sequence of HDAC3 (Q9Y618 whole entry, further chain): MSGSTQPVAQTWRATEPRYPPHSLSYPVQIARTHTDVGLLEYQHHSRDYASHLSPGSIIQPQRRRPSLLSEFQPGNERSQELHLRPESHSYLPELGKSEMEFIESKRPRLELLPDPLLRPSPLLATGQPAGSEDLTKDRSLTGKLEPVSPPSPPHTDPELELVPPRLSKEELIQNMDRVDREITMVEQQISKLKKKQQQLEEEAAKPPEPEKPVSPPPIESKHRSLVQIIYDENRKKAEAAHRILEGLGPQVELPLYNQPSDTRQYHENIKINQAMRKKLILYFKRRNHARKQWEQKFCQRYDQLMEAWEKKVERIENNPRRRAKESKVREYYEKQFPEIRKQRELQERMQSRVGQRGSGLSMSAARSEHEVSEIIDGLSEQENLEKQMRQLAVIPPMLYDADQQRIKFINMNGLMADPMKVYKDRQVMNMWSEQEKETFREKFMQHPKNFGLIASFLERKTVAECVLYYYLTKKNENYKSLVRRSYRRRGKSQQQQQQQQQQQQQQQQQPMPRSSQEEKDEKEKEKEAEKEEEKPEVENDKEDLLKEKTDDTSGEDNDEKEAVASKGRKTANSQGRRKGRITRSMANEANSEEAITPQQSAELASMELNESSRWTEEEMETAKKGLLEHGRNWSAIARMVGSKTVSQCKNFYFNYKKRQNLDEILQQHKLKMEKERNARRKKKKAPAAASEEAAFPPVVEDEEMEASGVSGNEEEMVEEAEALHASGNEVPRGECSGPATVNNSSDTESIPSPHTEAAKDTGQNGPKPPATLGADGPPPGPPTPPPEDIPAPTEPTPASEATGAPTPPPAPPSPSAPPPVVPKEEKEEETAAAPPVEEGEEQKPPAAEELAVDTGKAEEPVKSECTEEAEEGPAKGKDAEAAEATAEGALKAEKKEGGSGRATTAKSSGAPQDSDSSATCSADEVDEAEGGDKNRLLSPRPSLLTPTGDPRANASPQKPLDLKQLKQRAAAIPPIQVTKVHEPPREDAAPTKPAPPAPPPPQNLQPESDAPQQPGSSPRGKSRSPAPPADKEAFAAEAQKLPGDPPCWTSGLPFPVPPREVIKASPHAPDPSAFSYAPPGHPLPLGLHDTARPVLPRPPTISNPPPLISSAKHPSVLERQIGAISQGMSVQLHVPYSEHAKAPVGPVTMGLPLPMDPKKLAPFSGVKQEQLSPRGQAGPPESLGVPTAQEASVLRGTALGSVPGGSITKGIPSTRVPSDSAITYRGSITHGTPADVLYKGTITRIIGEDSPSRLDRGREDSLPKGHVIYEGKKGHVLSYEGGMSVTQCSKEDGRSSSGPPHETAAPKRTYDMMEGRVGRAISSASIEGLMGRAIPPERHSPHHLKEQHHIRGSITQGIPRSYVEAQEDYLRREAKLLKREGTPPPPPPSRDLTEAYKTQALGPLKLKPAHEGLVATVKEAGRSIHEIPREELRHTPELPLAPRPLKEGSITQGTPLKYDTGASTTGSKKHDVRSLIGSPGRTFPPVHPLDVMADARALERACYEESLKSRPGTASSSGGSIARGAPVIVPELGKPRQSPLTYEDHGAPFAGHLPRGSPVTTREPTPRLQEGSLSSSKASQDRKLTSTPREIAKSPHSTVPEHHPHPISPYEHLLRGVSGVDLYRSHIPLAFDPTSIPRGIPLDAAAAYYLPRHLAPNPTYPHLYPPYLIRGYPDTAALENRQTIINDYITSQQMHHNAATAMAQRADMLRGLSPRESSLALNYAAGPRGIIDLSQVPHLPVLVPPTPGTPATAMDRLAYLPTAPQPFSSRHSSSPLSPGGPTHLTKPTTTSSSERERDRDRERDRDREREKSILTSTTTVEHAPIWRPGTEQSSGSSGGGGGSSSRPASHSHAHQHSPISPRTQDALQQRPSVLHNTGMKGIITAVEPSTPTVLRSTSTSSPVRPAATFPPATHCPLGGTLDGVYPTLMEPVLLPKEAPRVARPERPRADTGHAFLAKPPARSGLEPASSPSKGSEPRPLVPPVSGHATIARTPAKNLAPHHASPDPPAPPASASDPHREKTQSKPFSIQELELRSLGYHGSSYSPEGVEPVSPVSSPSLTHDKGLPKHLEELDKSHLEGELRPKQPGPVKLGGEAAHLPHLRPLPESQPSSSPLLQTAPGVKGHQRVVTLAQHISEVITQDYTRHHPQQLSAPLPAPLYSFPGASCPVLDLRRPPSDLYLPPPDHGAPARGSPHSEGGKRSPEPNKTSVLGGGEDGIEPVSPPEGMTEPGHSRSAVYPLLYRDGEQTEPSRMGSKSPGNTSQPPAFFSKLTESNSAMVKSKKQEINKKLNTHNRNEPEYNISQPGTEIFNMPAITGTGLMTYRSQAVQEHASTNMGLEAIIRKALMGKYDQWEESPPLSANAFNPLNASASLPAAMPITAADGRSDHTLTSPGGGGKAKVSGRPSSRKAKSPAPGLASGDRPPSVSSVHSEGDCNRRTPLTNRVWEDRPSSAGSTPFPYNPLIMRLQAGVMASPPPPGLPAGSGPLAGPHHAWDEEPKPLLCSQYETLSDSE

Compound | MEL Differentiation % B+ [1] | MEL Differentiation Opt. ([1]; 5-day culture) | MEL Diff % B+ ([1]; Table 2) | MEL Diff Cells/ml × 10^−5 ([1]; Table 2) | IC50 [2, 6] | IC50 (HDAC; Example 12) | other results
O=C(CCCCC[C@H](NC(=O)OCc1ccccc1)C(=O)Nc1cccc2cccnc12)NO [Compound 4, N-benzyloxycarbonyl-(L)-α-aminosuberoyl-8-quinolinamide-ω-hydroxamic acid] | 8% | 40 nM | 8% | 13 Cells/ml × 10^−5 | 2.5 nM | 0.0025 µM | concentration able to induce MEL cell differentiation ([1]; FIGS. 1, 3, 4, 6, 5-day culture): 40 nM; IC50 ([2]; FIGS. 2, 5, 7, read-out: ID50 of HDAC1 enzymatic activity): < 10 nM; IC50 ([2]; Table 1, read-out: HDAC Inhibition ID50): < 10 nM
O=C(CCCCCC(C(=O)Nc1cccc2cccnc12)C(=O)Nc1cccc2cccnc12)NO [Compound 7] |  |  |  |  |  | 0.05 µM | 
O=C(CCCCCC(C(=O)Nc1cccc2ncccc12)C(=O)Nc1cccc2ncccc12)NO [Compound 691] |  |  | 0% | No inh | 100 nM |  | 
O=C(CCCCCCC(=O)Nc1nccs1)Nc1ccccc1 [Compound 693] |  |  | 0% | No inh |  |  | IC50 ([2]; Table 2, unit μM, read-out: HDAC inh ID50): > 100000 nM
O=C(CCCCCCC(=O)Nc1ccccc1)NO [SAHA, suberoylanilide hydroxamic acid, reference compound] | 68% | 2500 nM | 68% | 3.6 Cells/ml × 10^−5 |  |  | optimal dose for the cytodifferentiation of MEL cells ([1]; Example 12): 2.5 µM; MEL Diff Opt. ([1]; Table 2, cells printed in μM): 2.5 µM; reduction in mean final tumor volume compared to controls [3]: 97%; toxicity [3]: no .apparent toxicity; acetylated histones H3 and H4 in the tumor xenograft ([3]; FIG. 9): increase; acetylated histones H3 and H4 in peripheral blood mononuclear cells [4]: accumulation; inhibition of affinity purified HDAC3 (HDAC3): inhibits; IC50 (HDAC): 1 µM; inhibition of affinity purified HDAC1 [5]: inhibits
